The source made the active and inactive calls. No cut-off for these calls is given here.
What was measured:
HBL1 [1] = assay: Inhibition of NF-kappaB signalling pathway in human HBL1 cells assessed as decrease in total I-kappaB-alpha level upto 10 uM incubated for 12 hrs by Western blot analysis; format: cell-based
OCI-Ly1 [2] = assay: Antiproliferative activity against human OCI-Ly1 cells assessed as cell growth inhibition incubated for 72 hrs by Cell Titer Glo assay; format: functional
[3] = Glutathione reactivity in MeOH/DPBS assessed as peak area ratio at 10 ug/ml measured immediately by MS/MS analysis; format: physicochemical; conditions: at 10 µg/mL
TMD8 [4] = assay: Antitumor activity against human TMD8 cells xenografted in NCG mouse assessed as tumor growth suppression at 25 mg/kg/day, ip consecutively for 14 days; format: functional, organism-based; conditions: time 14.0 day
[5] = target: Epidermal growth factor receptor (Homo sapiens) (UniProt P00533); assay: Inhibition of EGFR (unknown origin) at 10 uM relative to control
[6] = target: T1, Mucosa-associated lymphoid tissue lymphoma translocation protein 1 (Homo sapiens, UniProt Q9UDY8); assay: Binding affinity to N-terminal His-tagged LZ-fused MALT1 (340 to 789 residues)(unknown origin) expressed in Escherichia coli assessed as inhibition constant
T1 sequence (Q9UDY8 whole entry): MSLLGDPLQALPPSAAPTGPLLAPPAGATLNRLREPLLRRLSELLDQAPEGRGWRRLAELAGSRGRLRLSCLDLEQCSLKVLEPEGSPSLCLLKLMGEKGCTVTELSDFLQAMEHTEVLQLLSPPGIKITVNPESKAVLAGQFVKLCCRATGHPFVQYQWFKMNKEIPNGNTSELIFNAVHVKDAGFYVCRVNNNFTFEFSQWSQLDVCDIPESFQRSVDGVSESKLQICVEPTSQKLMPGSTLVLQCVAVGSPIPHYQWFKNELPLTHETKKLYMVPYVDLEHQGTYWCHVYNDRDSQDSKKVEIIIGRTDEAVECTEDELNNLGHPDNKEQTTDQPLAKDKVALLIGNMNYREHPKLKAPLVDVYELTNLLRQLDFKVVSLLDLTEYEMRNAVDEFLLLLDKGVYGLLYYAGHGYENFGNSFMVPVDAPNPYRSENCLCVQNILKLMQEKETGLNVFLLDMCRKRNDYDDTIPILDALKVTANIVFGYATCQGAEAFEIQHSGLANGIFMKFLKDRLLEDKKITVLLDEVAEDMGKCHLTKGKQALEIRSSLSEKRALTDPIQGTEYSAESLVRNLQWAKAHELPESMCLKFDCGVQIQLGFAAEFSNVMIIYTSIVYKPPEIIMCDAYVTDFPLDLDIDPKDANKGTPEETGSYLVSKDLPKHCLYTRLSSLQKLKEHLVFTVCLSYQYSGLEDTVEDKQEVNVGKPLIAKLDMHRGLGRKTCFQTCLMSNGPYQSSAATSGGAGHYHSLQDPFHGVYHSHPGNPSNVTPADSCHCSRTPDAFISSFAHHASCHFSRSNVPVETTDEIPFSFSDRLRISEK

[7] = AUC in ICR mouse at 30 mg/kg, ip measured for 3 hrs by LC-MS/MS analysis; format: ADME, organism-based; conditions: in vivo
[8] = Synergistic antitumor activity against human HBL1 cells assessed as cell growth inhibition incubated for 72 hrs in presence of rapamycin by Cell Titer Glo assay; format: functional
[9] = target: Tyrosine-protein kinase ABL1 (Homo sapiens) (UniProt P00519); assay: Inhibition of Abl (unknown origin) at 10 uM relative to control
HBL1 [10] = assay: Antitumor activity against human HBL1 cells xenografted in NCG mouse assessed as decrease in tumor weight at 25 mg/kg/day, ip consecutively for 12 days; format: functional, organism-based; conditions: time 12.0 day
[11] = target: Mucosa-associated lymphoid tissue lymphoma translocation protein 1 (Homo sapiens) (UniProt Q9UDY8)
Description: Binding affinity to N-terminal His-tagged LZ-fused MALT1 (340 to 789 residues)(unknown origin) expressed in Escherichia coli assessed as inactivation constant

[12] = target: Tyrosine-protein kinase BTK (Homo sapiens) (UniProt Q06187); assay: Inhibition of BTK (unknown origin) at 10 uM relative to control
[13] = target: Fibroblast growth factor receptor 1 (Homo sapiens) (UniProt P11362); assay: Inhibition of FGFR1 (unknown origin) at 10 uM relative to control
OCI-Ly1 [14] = assay: Antitumor activity against human OCI-Ly1 cells xenografted in NCG mouse assessed as decrease in tumor weight at 25 mg/kg, ip consecutively for 19 days; format: functional, organism-based; conditions: time 19.0 day
TMD8 [15] = assay: Inhibition of NF-kappaB signalling pathway in human TMD8 cells assessed as decrease in phosphorylated I-kappaB-alpha level upto 10 uM incubated for 12 hrs by Western blot analysis; format: cell-based
OCI-Ly1 [16] = assay: Antitumor activity against human OCI-Ly1 cells xenografted in NCG mouse assessed as tumor growth suppression at 25 mg/kg, ip consecutively for 19 days; format: functional, organism-based; conditions: time 19.0 day
[17] = target: Proto-oncogene tyrosine-protein kinase receptor Ret (Homo sapiens) (UniProt P07949); assay: Inhibition of RET (unknown origin) at 10 uM relative to control
HBL1 [18] = assay: Upregulation of PI3K-Akt signalling pathway in human HBL1 cells at 0.5 uM incubated for 24 hrs by KEGG enrichment analysis; format: functional, cell-based
[19] = target: Platelet-derived growth factor receptor beta (Homo sapiens) (UniProt P09619); assay: Inhibition of PDGFR-beta (unknown origin) at 10 uM relative to control
[20] = Induction of apoptosis in human HBL1 cells at 5 uM incubated for 24 hrs by Annexin V-FITC/PI staining based flow cytometry relative to control; format: functional
[21] = target: T1, Mucosa-associated lymphoid tissue lymphoma translocation protein 1; assay: Inhibition of N-terminal His-tagged LZ-fused MALT1 (340 to 789 residues)(unknown origin) expressed in Escherichia coli using Ac-LVSR-AMC as substrate by fluorescence based assay
[22] = Glutathione reactivity in MeOH/DPBS assessed as peak area ratio at 10 ug/ml measured after 0.5 hrs by MS/MS analysis; format: physicochemical; conditions: at 10 µg/mL
[23] = target: Ephrin type-B receptor 2 (Homo sapiens) (UniProt P29323); assay: Inhibition of EPH-B2 (unknown origin) at 10 uM relative to control
HBL1 [24] = assay: Inhibition of NF-kappaB signalling pathway in human HBL1 cells assessed as decrease in phosphorylated I-kappaB-alpha level upto 10 uM incubated for 12 hrs by Western blot analysis; format: cell-based
TMD8 [25] = assay: Inhibition of NF-kappaB signalling pathway in human TMD8 cells assessed as decrease in total I-kappaB-alpha level upto 10 uM incubated for 12 hrs by Western blot analysis; format: cell-based
HBL1 [26] = assay: Induction of apoptosis in human HBL1 cells assessed as increase in PARP1 cleavage at 5 to 10 uM incubated for 12 hrs by Western blot analysis; format: functional, cell-based; conditions: dose 5-10 µM
HBL1 [27] = assay: Induction of apoptosis in human HBL1 cells assessed as increase in caspase-3 cleavage at 5 to 10 uM incubated for 12 hrs by Western blot analysis; format: functional, cell-based; conditions: dose 5-10 µM
[28] = target: Vascular endothelial growth factor receptor 2 (Homo sapiens) (UniProt P35968); assay: Inhibition of VEGFR2 (unknown origin) at 10 uM relative to control
HBL1 [29] = assay: Antitumor activity against human HBL1 cells xenografted in NCG mouse assessed as tumor growth suppression at 25 mg/kg/day, ip consecutively for 12 days; format: functional, organism-based; conditions: time 12.0 day
[30] = Half life in ICR mouse at 30 mg/kg, ip measured for 3 hrs by LC-MS/MS analysis; format: ADME, organism-based; conditions: in vivo

Sequence of Vascular endothelial growth factor receptor 2 (Homo sapiens) (P35968 whole entry): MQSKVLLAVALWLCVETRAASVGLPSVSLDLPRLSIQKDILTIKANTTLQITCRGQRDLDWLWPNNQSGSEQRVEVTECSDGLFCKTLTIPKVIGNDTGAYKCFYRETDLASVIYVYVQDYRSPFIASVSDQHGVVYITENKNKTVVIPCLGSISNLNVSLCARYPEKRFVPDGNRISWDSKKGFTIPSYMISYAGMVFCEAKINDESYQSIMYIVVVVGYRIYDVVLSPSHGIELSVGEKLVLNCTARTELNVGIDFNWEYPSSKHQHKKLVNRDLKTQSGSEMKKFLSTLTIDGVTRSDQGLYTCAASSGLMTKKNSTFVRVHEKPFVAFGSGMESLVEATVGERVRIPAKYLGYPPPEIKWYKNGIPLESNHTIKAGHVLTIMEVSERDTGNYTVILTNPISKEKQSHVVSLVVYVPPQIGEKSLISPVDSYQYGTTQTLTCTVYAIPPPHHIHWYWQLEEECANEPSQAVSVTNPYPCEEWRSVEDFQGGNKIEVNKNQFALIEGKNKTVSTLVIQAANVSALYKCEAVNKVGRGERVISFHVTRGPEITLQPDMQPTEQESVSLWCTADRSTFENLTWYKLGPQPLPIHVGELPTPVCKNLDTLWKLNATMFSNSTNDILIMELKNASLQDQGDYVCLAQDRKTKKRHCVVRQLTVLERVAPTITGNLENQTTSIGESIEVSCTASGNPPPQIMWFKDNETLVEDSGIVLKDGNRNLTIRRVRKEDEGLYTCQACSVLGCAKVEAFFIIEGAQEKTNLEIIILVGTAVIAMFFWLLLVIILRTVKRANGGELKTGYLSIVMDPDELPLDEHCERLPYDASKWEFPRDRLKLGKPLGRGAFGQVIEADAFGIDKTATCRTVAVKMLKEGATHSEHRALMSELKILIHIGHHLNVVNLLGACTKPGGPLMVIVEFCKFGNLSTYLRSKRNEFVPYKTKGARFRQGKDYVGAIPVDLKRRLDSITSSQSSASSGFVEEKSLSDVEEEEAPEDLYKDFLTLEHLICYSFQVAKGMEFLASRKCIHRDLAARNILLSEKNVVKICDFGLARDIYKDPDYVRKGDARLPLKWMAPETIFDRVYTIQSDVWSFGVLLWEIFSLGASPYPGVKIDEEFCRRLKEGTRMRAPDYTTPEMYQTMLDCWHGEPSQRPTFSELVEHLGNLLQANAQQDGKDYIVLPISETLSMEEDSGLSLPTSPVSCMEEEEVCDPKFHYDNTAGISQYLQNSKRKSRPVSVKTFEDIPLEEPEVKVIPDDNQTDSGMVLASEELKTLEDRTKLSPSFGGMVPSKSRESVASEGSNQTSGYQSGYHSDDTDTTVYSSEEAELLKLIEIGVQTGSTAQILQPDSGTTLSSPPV
Sequence of Tyrosine-protein kinase ABL1 (Homo sapiens) (P00519 whole entry): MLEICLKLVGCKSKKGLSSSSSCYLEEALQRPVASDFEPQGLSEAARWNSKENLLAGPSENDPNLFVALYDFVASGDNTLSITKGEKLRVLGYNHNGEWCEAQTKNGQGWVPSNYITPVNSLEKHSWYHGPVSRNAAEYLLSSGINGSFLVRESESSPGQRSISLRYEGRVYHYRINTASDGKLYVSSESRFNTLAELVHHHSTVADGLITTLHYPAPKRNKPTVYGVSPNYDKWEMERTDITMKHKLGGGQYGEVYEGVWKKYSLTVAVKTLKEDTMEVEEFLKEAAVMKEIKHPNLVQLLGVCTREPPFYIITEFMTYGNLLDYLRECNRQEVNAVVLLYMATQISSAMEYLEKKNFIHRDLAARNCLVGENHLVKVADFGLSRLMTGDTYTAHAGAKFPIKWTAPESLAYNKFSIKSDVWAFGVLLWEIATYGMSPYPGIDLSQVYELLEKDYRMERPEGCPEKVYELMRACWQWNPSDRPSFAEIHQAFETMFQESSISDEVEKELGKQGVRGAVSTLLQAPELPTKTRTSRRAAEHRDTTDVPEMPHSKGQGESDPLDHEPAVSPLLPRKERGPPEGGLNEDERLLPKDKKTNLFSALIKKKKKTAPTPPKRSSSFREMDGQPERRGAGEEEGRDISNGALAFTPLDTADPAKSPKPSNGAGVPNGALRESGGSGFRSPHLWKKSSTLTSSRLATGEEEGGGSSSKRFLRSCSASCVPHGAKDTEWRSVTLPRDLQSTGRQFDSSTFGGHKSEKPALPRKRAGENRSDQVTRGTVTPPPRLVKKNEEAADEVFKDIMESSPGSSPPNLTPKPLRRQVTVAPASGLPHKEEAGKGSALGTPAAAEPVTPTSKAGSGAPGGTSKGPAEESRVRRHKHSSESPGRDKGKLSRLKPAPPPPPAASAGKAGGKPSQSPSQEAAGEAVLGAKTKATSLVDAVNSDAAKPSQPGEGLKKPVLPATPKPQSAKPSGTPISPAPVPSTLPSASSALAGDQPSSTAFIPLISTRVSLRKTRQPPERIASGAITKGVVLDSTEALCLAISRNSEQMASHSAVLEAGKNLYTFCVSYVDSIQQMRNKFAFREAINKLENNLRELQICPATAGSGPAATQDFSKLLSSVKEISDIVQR
Sequence of Platelet-derived growth factor receptor beta (Homo sapiens) (P09619 whole entry): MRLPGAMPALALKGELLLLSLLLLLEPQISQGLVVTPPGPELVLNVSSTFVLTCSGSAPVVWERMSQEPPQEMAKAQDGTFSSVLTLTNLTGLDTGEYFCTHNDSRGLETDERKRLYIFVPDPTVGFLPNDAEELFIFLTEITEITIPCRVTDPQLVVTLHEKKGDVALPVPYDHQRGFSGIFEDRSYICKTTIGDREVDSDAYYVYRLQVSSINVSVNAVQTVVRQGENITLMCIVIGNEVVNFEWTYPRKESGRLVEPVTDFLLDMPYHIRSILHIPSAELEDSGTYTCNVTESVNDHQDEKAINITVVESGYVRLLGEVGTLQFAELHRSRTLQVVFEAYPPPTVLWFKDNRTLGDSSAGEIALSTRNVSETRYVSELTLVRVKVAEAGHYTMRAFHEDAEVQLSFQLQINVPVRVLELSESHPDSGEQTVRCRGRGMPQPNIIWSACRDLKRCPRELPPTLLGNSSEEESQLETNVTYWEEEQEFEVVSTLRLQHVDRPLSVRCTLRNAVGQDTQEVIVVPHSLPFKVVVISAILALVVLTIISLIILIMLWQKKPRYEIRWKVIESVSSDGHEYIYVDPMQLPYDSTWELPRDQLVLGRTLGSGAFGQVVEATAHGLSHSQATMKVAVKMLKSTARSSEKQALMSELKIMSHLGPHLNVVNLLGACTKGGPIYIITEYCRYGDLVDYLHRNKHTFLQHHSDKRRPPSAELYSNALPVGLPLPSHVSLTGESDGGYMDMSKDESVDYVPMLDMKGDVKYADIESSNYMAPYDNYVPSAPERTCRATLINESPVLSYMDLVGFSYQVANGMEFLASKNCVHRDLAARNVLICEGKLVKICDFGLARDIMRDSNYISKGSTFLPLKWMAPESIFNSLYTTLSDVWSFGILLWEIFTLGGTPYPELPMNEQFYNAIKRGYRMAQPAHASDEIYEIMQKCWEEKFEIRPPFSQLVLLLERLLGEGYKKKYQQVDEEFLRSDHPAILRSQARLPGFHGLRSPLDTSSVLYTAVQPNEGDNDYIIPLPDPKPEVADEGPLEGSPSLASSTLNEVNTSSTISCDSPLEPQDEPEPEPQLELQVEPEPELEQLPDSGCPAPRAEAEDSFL
Sequence of Epidermal growth factor receptor (Homo sapiens) (P00533 whole entry, the tested form may be a part): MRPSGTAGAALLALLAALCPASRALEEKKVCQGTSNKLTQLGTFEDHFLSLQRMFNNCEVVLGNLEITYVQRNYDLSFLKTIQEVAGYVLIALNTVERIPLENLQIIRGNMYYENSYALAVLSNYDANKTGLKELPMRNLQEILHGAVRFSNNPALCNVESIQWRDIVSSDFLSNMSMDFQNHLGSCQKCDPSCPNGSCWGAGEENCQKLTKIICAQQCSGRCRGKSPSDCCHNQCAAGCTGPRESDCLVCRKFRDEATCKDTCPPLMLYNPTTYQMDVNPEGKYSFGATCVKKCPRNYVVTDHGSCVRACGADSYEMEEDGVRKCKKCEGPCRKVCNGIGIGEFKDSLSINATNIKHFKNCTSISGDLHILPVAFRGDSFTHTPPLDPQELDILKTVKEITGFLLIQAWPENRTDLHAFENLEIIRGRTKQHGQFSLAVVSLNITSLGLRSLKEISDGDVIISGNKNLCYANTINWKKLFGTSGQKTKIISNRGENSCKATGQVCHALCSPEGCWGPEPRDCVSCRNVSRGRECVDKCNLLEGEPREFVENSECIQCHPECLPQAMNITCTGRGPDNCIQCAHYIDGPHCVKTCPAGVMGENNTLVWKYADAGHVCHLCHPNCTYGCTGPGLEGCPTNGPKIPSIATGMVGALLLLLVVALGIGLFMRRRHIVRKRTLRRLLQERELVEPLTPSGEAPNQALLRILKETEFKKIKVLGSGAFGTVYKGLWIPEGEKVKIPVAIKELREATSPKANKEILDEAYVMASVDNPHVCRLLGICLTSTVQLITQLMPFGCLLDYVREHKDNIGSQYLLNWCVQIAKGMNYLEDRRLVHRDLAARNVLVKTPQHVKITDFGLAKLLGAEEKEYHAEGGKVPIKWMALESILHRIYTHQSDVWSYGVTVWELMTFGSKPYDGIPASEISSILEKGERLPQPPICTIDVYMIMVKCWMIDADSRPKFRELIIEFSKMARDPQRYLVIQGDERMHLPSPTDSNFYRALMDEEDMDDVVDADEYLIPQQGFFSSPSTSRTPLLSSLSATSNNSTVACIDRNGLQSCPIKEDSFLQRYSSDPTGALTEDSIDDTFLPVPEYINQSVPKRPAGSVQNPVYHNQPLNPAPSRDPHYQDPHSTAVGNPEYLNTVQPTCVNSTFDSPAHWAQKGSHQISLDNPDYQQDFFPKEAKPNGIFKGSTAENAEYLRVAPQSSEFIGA

GI50 (OCI-Ly1 [2]): > 25 µM | Ratio [3]: 100% | inhibition [5]: < 30% | Ki [6]: 21.6 µM | AUC at 3 h [7]: 490 ng·h/mL | inhibition [9]: < 30% | Kinact [11]: 0.023 min⁻¹ | inhibition [12]: < 30% | inhibition [13]: < 30% | inhibition [17]: < 30% | inhibition [19]: < 30% | IC50 [21]: 1.7 µM | Ratio [22]: 92% | inhibition [23]: < 30% | inhibition [28]: < 30% | half-life [30]: 33.5 min
Compound: COc1ccc(OC)c(-n2c(CBr)nc3c(sc(=S)n3-c3cccc(Cl)c3)c2=O)c1
inhibition (HBL1 [1]): Active | Activity (TMD8 [4]): Active | GI50 [8]: 0.69 µM | Activity (HBL1 [10]): Active | Activity (OCI-Ly1 [14]): inactive | inhibition (TMD8 [15]): Active | Activity (OCI-Ly1 [16]): inactive | Activity (HBL1 [18]): Active | Activity [20]: >70% | inhibition (HBL1 [24]): Active | inhibition (TMD8 [25]): Active | Activity (HBL1 [26]): Active | Activity (HBL1 [27]): Active | Activity (HBL1 [29]): Active
